Experimental data published in patent US20250197394A1, “ANTIBACTERIALS BASED ON MONOCYCLIC FRAGMENTS COUPLED TO AMINOPIPERIDINE NAPHTHYRIDINE SCAFFOLD” (UNIVERZA V LJUBLJANI, priority 2019, published 2025).
≈ marks a conversion by molar mass, not a printed value.

Legend:
Format in all cases: cell-based
[1] = tested on: methicillin-resistant Staphylococcus pseudintermedius S-35; experiment: MIC broth microdilution, MRSP S-35; settings: 20 hours of incubation
Method: (§1) Minimal inhibitory concentrations were determined by the broth microdilution method in 96-wells plate format following the Clinical and Laboratory Standards Institute (CLSI) guidelines given in “Methods for Dilution Antimicrobial Susceptibility Tests for Bacteria That Grow Aerobically, Approved Standard, 10th Edition, CLSI document M07-A10, Wayne, PA: Clinical and Laboratory Standards Institute, USA, 2015” and European Committee on Antimicrobial Susceptibility Testing (EUCAST) recommendations given in “The European Committee on Antimicrobial Susceptibility Testing, Breakpoint tables for interpretation of MICs and zone diameters, Version 5.0, 2015”. All exemplified compounds were tested on several Gram-positive (S. aureus, methicillin-resistant Staphylococcus aureus (MRSA), methicillin-resistant
(§2) Staphylococcus schleiferi subspecies coagulans, methicillin-resistant Staphylococcus pseudintermedius
(§3) (S-48, S-84, S-35, S-52, S-40 and S-51), Streptococcus agalactiae and Enterococcus faecalis) and Gram-negative bacteria (E. coli, Salmonella Alachua and Pseudomonas aeruginosa).
(§4) The MICs were visually determined as the lowest compound concentration inhibiting bacterial growth after 20 hours of incubation time. […] MIC values are represented in Table 2.

C. jejuni RDK-135 = experiment: MIC broth microdilution, C. jejuni; settings: Campylobacter jejuni, RDK135, 20 hours of incubation
Method: as §1, §4

[2] = tested on: methicillin-resistant Staphylococcus pseudintermedius S-84; experiment: MIC broth microdilution, MRSP S-84; settings: 20 hours of incubation
Method: as §1, §2, §3, §4

S. aureus = experiment: MIC broth microdilution, S. aureus; settings: Staphylococcus aureus, 20 hours of incubation
Method: as §1, §2, §3, §4

P. aeruginosa RDK 184 = experiment: MIC broth microdilution, P. aeruginosa; settings: Pseudomonas aeruginosa, RDK184, 20 hours of incubation
Method: as §1, §2, §3, §4

[3] = tested on: methicillin-resistant Staphylococcus schleiferi subspecies coagulans; experiment: MIC broth microdilution, MRSS; settings: 20 hours of incubation
Method: as §1, §2, §3, §4

E. faecalis DRK 057 = experiment: MIC broth microdilution, E. faecalis; settings: Enterococcus faecalis, DRK057, 20 hours of incubation
Method: as §1, §2, §3, §4

[4] = tested on: methicillin-resistant Staphylococcus pseudintermedius S-48; experiment: MIC broth microdilution, MRSP S-48; settings: 20 hours of incubation
Method: as §1, §2, §3, §4

[5] = tested on: methicillin-resistant Staphylococcus pseudintermedius S-40; experiment: MIC broth microdilution, MRSP S-40; settings: 20 hours of incubation
Method: as §1, §2, §3, §4

HUVEC (ATCC) cell line = experiment: Cytotoxicity, metabolic cell activity (CellTiter 96 AQueous One), HUVEC; settings: two independent experiments
Method: (§5) Cytotoxicity was assessed in assay measuring metabolic cell activity performed on HepG2 (ATCC) and HUVEC (ATCC) cell lines according to the protocol of CellTiter 96® AQueous One Solution Cell Proliferation Assay 2018, Promega, USA, 2001. The method involved absorbance measurements after the treatment of cells with compounds at concentrations 1 μM and 50 μM.
(§6) The results are given as the mean percentage of metabolic activity of treated cells from two independent experiments and are represented in Table 3.

HepG2 (ATCC) cell line = experiment: Cytotoxicity, metabolic cell activity (CellTiter 96 AQueous One), HepG2; settings: two independent experiments
Method: as §5, §6

[6] = tested on: methicillin-resistant Staphylococcus pseudintermedius S-52; experiment: MIC broth microdilution, MRSP S-52; settings: 20 hours of incubation
Method: as §1, §2, §3, §4

[7] = tested on: methicillin-resistant Staphylococcus pseudintermedius S-51; experiment: MIC broth microdilution, MRSP S-51; settings: 20 hours of incubation
Method: as §1, §2, §3, §4

COc1ccc2nccc(CCN3CCC(NCc4ccc(Cl)cc4)CC3)c2n1 [Compound C6, N-(4-chlorobenzyl)-1-(2-(6-methoxy-1,5-naphthyridin-4-yl)ethyl)piperidin-4-amine] gave an MIC [1] of 0.25 mg/L (≈ 0.608 µM), an MIC (C. jejuni RDK-135) of 2 mg/L (≈ 4.87 µM) and an MIC [2] of 0.25 mg/L (≈ 0.608 µM). It also gave an MIC (S. aureus) of 0.125 mg/L (≈ 0.304 µM), an MIC (P. aeruginosa RDK 184) greater than 128 mg/L and an MIC [3] of no more than 0.0078 mg/L. For the same compound, the MIC (E. faecalis DRK 057) was 1 mg/L (≈ 2.43 µM), the MIC [4] was 0.25 mg/L (≈ 0.608 µM) and the MIC [5] was 0.25 mg/L (≈ 0.608 µM). For the same compound, the “mean percentage of metabolic activity of treated cells, HUVEC 1 μM” value (HUVEC (ATCC) cell line; compound 1 μM) was 86.1 ± 17.1%, the “mean percentage of metabolic activity of treated cells, HUVEC 50 μM” value (HUVEC (ATCC) cell line; compound 50 μM) was −0.6 ± 0.4% and the “mean percentage of metabolic activity of treated cells, HepG2 1 μM” value (HepG2 (ATCC) cell line; HepG2, compound 1 μM) was 84.5 ± 11.1%. The “mean percentage of metabolic activity of treated cells, HepG2 50 μM” value (HepG2 (ATCC) cell line; HepG2, compound 50 μM) was 0.9 ± 0.1%, the MIC [6] was 0.5 mg/L (≈ 1.22 µM) and the MIC [7] was 0.25 mg/L (≈ 0.608 µM).
